Data published in ChEMBL document CHEMBL1955806, “Design, synthesis, single-crystal and preliminary antitumor activity of novel arenesulfonylimidazolidin-2-ones” (2012).

Legend:
Type in all cases: functional
MOLT-4 = test: Growth inhibition of human MOLT4 cells at 10 uM after 48 hrs by sulforhodamine B assay; settings: MOLT-4, 48 h, read-out: GI
IGROV-1 = test: Growth inhibition of human IGROV1 cells at 10 uM after 48 hrs by sulforhodamine B assay; settings: IGROV-1, 48 h, read-out: GI
SF-295 = test: Growth inhibition of human SF295 cells at 10 uM after 48 hrs by sulforhodamine B assay; settings: SF-295, 48 h, read-out: GI
UO-31 = test: Growth inhibition of human UO31 cells at 10 uM after 48 hrs by sulforhodamine B assay; settings: UO-31, 48 h, read-out: GI
UACC-62 = test: Growth inhibition of human UACC62 cells at 10 uM after 48 hrs by sulforhodamine B assay; settings: UACC-62, 48 h, read-out: GI
HOP-92 = test: Growth inhibition of human HOP92 cells at 10 uM after 48 hrs by sulforhodamine B assay; settings: HOP-92, 48 h, read-out: GI
HCT-116 = test: Growth inhibition of human HCT116 cells at 10 uM after 48 hrs by sulforhodamine B assay; settings: HCT-116, 48 h, read-out: GI
PC-3 = test: Growth inhibition of human PC3 cells at 10 uM after 48 hrs by sulforhodamine B assay; settings: PC-3, 48 h, read-out: GI
CAKI-1 = test: Growth inhibition of human CAKI-1 cells at 10 uM after 48 hrs by sulforhodamine B assay; settings: CAKI-1, 48 h, read-out: GI

Row | Compound | inhibition of growth at 10 µM (MOLT-4) [%] | inhibition of growth at 10 µM (IGROV-1) [%] | inhibition of growth at 10 µM (SF-295) [%] | inhibition of growth at 10 µM (UO-31) [%] | inhibition of growth at 10 µM (UACC-62) [%] | inhibition of growth at 10 µM (HOP-92) [%] | inhibition of growth at 10 µM (HCT-116) [%] | inhibition of growth at 10 µM (PC-3) [%] | inhibition of growth at 10 µM (CAKI-1) [%]
1 | COc1ccc(S(=O)(=O)N2C(=O)N(S(=O)(=O)c3ccc(OC)cc3)[C@H](OC)[C@H]2OC)cc1 (relative stereo) | 15.6 | 6.17 | 6.43 | 35.1 | 20.3 | 61 | 8.94 | 22.2 | 36.8
2 | COc1ccc(S(=O)(=O)N2C(=O)N[C@H](OC)[C@H]2OC)c(OC)c1 (relative stereo) | – | -13.9 | 2.06 | 6.25 | 8.26 | – | – | 4.15 | 21.2
3 | CO[C@@H]1[C@@H](OC)N(S(=O)(=O)c2ccccc2)C(=O)N1S(=O)(=O)c1ccccc1 (relative stereo) | 13.3 | 3.06 | -12.3 | 15 | -6.88 | 29.9 | -2.02 | 5.78 | 10.4
4 | CO[C@H]1NC(=O)N(S(=O)(=O)c2ccc3ccccc3c2)[C@@H]1OC (relative stereo) | – | -25.5 | 4.43 | 13.7 | 1.65 | – | -4.18 | 2.1 | -7.3
5 | CO[C@H]1NC(=O)N(S(=O)(=O)c2ccc(Cl)cc2)[C@@H]1OC (relative stereo) | – | -23.9 | 7.91 | 22 | – | -13.6 | -10.3 | 2.67 | 7.49
6 | COc1ccc(S(=O)(=O)N2C(=O)N(S(=O)(=O)c3ccc(OC)cc3OC)[C@H](OC)[C@H]2OC)c(OC)c1 (relative stereo) | 14.2 | 3.77 | 4.19 | 23.3 | 16 | – | -2.15 | 15.9 | 17.1
7 | COc1ccc(S(=O)(=O)N2C(=O)N[C@H](OC)[C@H]2OC)cc1 (relative stereo) | -5.62 | -20.7 | 8.51 | – | – | – | -23.4 | -2.45 | 7.51
8 | CO[C@H]1NC(=O)N(S(=O)(=O)c2c(C)cc(C)cc2C)[C@@H]1OC (relative stereo) | – | -7.61 | – | 14.7 | 6.82 | 21.3 | – | 4.26 | 15.7
9 | CO[C@@H]1[C@@H](OC)N(S(=O)(=O)c2ccc(Cl)cc2Cl)C(=O)N1S(=O)(=O)c1ccc(Cl)cc1Cl (relative stereo) | 14.2 | 4.16 | 16 | 15.3 | 4.25 | 60.2 | 11.9 | 22.5 | 25
